Here are results for 49 compounds from publication PMC11855827, “High-Throughput Screening of Five Compound Libraries for Anthelmintic Activity and Toxicity Leads to the Discovery of Two Flavonoid Compounds” (International Journal of Molecular Sciences, 2025).

SMILES strings stand for the structures. Where a name gives a salt, the structure may show the parent alone. Read-outs that look alike come from different tables or passages of the source.

For the assay, the system named is C. elegans. The assay is described as follows: microbe, parasite or virus in culture. To be noted: Caenorhabditis elegans.
[1] abbreviates: 0 h, read-out: Percentage of motility inhibition 0 h, Table S2, C. elegans SS assay, 110 μM, 0 h, averages of 4 data points.
[2] abbreviates: 24 h, read-out: Percentage of motility inhibition 24 h, Table S2, C. elegans SS assay, 110 μM, 24 h, averages of 4 data points.
The mark [3] stands for this setting: 0 h, read-out: Percentage of motility inhibition 0 h.
Where [4] appears, read: 24 h, read-out: Percentage of motility inhibition 24 h.

With `Cc1ncc([N+](=O)[O-])n1CCO` [Metronidazole], the inhibition at 110 µM by setting is: under setting [1], 34%; under setting [2], 14%.
On the same counts, the results for `C=C1C(=O)O[C@H]2[C@H]1CCC(C)=C1CC[C@@](C)(O)[C@@H]12` [Micheliolide] are 0% and 0%.
Take `CCC(=O)O[C@@H]1CC(=O)O[C@H](C)C/C=C/C=C/[C@H](O)[C@H](C)C[C@H](CC=O)[C@H](O[C@@H]2O[C@H](C)[C@@H](O[C@H]3C[C@@](C)(O)[C@@H](OC(=O)CC)[C@H](C)O3)[C@H](N(C)C)[C@H]2O)[C@H]1OC` [Midecamycin]: the inhibition at 110 µM under setting [1] is 16% and the inhibition at 110 µM under setting [2] was 14%.
For `CC(C)C1=Cc2ccc3c(c2C(=O)C1=O)CCCC3(C)C` [Miltirone], the inhibition at 110 µM under setting [1] came to 0% and the inhibition at 110 µM under setting [2] was 36%.
As for `NC(=O)c1ncn([C@@H]2O[C@H](CO)[C@@H](O)[C@H]2O)c1O` [Mizoribine], the inhibition at 110 µM reads like this: under setting [1], 28%; under setting [2], 29%.
Regarding `C[C@H](CC[C@@H](O)C(C)(C)O)[C@H]1CC[C@@]2(C)[C@@H]3CC=C4[C@@H](CC[C@H](O)C4(C)C)[C@]3(C)[C@H](O)C[C@]12C` [Mogrol], the inhibition at 110 µM worked out at 5% under setting [1] and 2% under setting [2].
As to `COC(=O)c1c2c(c3ccccc3c1O)OC(C)(C)C=C2` [Mollugin], the inhibition at 110 µM by setting is: under setting [1], 1%; under setting [2], 12%.
For the compound `C[C@H]1C(=O)O[C@@H]2CC[N+]3([O-])CC=C(COC(=O)[C@](C)(O)[C@]1(C)O)[C@H]23` (stereo partly shown) [Monocrotaline N‐Oxide], the inhibition at 110 µM under setting [1] was 0% and the inhibition at 110 µM under setting [2] is 0%.
Consider `COC(=O)/C=C/C(=O)O` [Monomethyl fumarate], for which the inhibition at 110 µM under setting [1] was found to be 0% and the inhibition at 110 µM under setting [2] worked out at 15%.
As for `O=c1c(O)c(-c2ccc(O)cc2O)oc2cc(O)cc(O)c12` [Morin], the inhibition at 110 µM came to 44% under setting [1] and 17% under setting [2].
Regarding `COC(=O)C1=CO[C@@H](O[C@@H]2O[C@H](CO)[C@@H](O)[C@H](O)[C@H]2O)[C@@H]2[C@H](C)O[C@@H](O)C[C@H]12` [Morroniside], the inhibition at 110 µM stood at 5% under setting [1] and 42% under setting [2].
Take `CC(C)=CCc1c(-c2ccc(O)cc2O)oc2c3c(cc(O)c2c1=O)OC(C)(C)C=C3` [Morusin]: the inhibition at 110 µM runs as follows: under setting [1], 33%; under setting [2], 14%.
Take `C[C@@]12C[C@@]3(O)O[C@@H](O1)[C@]1(COC(=O)c4ccc(O)cc4)[C@@H]3C[C@]12O[C@@H]1O[C@H](COC(=O)c2ccccc2)[C@@H](O)[C@H](O)[C@H]1O` [Mudanpioside C]: the inhibition at 110 µM under setting [1] worked out at 23% and the inhibition at 110 µM under setting [2] turned out to be 41%.
Regarding `C/C(=C\C(=O)OCCCCCCCCC(=O)O)C[C@@H]1OC[C@H](C[C@@H]2O[C@H]2[C@@H](C)[C@H](C)O)[C@@H](O)[C@H]1O` [Mupirocin], the inhibition at 110 µM under setting [1] was found to be 10% and the inhibition at 110 µM under setting [2] was 11%.
On the same counts, the results for `CCCCC(C#N)(Cn1cncn1)c1ccc(Cl)cc1` (stereo not shown) [Myclobutanil] are 30% and 12%.
As to `c1cncc(C2=NCCC2)c1` [Myosmine], the inhibition at 110 µM runs as follows: under setting [1], 18%; under setting [2], 24%.
As to `C=CC(=C)CCC=C(C)C` [Myrcene], the inhibition at 110 µM is, setting by setting: under setting [1], 8%; under setting [2], 23%.
As for `O=c1c(O)c(-c2cc(O)c(O)c(O)c2)oc2cc(O)cc(O)c12` [Myricetin], the inhibition at 110 µM is, setting by setting: under setting [3], 30%; under setting [4], 7%.
For the compound `CC1CCc2c(N3CCC(O)CC3)c(F)cc3c(=O)c(C(=O)O)cn1c23` (stereo not shown) [Nadifloxacin], the inhibition at 110 µM by setting is: under setting [1], 0%; under setting [2], 0%.
On to `CCCCCCCCCC(=O)O[C@H]1CC[C@H]2[C@@H]3CCC4=CC(=O)CC[C@@H]4[C@H]3CC[C@]12C` [Nandrolone decanoate], for which the inhibition at 110 µM turned out to be 29% under setting [1] and 31% under setting [2].
On the same counts, the results for `COc1cc(-c2oc3cc(O)cc(O)c3c(=O)c2O[C@@H]2O[C@H](CO[C@@H]3O[C@@H](C)[C@H](O)[C@@H](O)[C@H]3O)[C@@H](O)[C@H](O)[C@H]2O)ccc1O` [Narcissin] are 42% and 25%.
With `C[C@@H]1CCC=C2C(=O)C[C@H]3OOC(C)(C)[C@H]3[C@]21C` [Nardosinone], the inhibition at 110 µM by setting is: under setting [1], 0%; under setting [2], 13%.
On the same counts, the results for `C[C@@H]1O[C@@H](O[C@H]2[C@H](Oc3cc(O)c4c(c3)O[C@H](c3ccc(O)cc3)CC4=O)O[C@H](CO)[C@@H](O)[C@@H]2O)[C@H](O)[C@H](O)[C@H]1O` [Naringin] are 0% and 3%.
On to `C[C@@H]1O[C@@H](OC[C@H]2O[C@@H](Oc3cc(O)c4c(c3)O[C@H](c3ccc(O)cc3)CC4=O)[C@H](O)[C@@H](O)[C@@H]2O)[C@H](O)[C@H](O)[C@H]1O` [Narirutin], for which the inhibition at 110 µM is, setting by setting: under setting [1], 39%; under setting [2], 19%.
For `C[C@@H]1C/C=C/C=C/C=C/C=C/[C@H](O[C@@H]2O[C@H](C)[C@@H](O)[C@H](N)[C@@H]2O)C[C@@H]2O[C@](O)(C[C@@H](O)C[C@H]3O[C@@H]3/C=C/C(=O)O1)C[C@H](O)[C@H]2C(=O)O` [Natamycin] the same measures were 26% and 0%.
Regarding `COc1ccc(C[C@@H]2c3cc(Oc4cc(C[C@@H]5c6cc(OC)c(OC)cc6CCN5C)ccc4O)c(OC)cc3CCN2C)cc1` [Neferine], the inhibition at 110 µM by setting is: under setting [3], 25%; under setting [4], 9%.
For `C=C1CC[C@@H]2[C@](C)(CO[C@@H]3O[C@H](CO)[C@@H](O)[C@H](O)[C@H]3O)CCC[C@@]2(C)[C@@H]1CCC1=CCOC1=O` [Neoandrographolide], the inhibition at 110 µM turned out to be 15% under setting [1] and 40% under setting [2].
For the compound `CC(C)=CCc1cc(-c2coc3cc(O)ccc3c2=O)ccc1O` [Neobavaisoflavone], the inhibition at 110 µM is, setting by setting: under setting [1], 10%; under setting [2], 21%.
Consider `C[C@H](CO)C1=C(O)C(=O)c2c(ccc3c2CCCC3(C)C)C1=O` [Neocryptotanshinone], for which the inhibition at 110 µM is 18% under setting [1] and 25% under setting [2].
On the same counts, the results for `COc1ccc(CCC(=O)c2c(O)cc(O[C@@H]3O[C@H](CO)[C@@H](O)[C@H](O)[C@H]3O[C@@H]3O[C@@H](C)[C@H](O)[C@@H](O)[C@H]3O)cc2O)cc1O` [Neohesperidin dihydrochalcone] are 10% and 2%.
As for `CC[C@@H]1[C@H]2CCCCN3[C@H]2[C@@H](C[C@H]3[C@@H]2C[C@H](C)C(=O)O2)[C@H]2[C@@H]1OC(=O)[C@H]2C` [Neotuberostemonine], the inhibition at 110 µM was 0% under setting [1] and 9% under setting [2].
As to `COc1ccc(-c2cc(=O)c3c(O)c(OC)c(O)c(OC)c3o2)cc1` [Nevadensin], the inhibition at 110 µM stood at 39% under setting [1] and 0% under setting [2].
As for `Cc1ccnc2c1NC(=O)c1cccnc1N2C1CC1` [Nevirapine], the inhibition at 110 µM is 10% under setting [1] and 6% under setting [2].
On to `O=C(O)c1cccnc1` [Niacin], for which the inhibition at 110 µM reads like this: under setting [1], 0%; under setting [2], 14%.
Take `CSCC1CN(/N=C/c2ccc([N+](=O)[O-])o2)C(=O)O1` (stereo not shown) [Nifuratel]: the inhibition at 110 µM was determined as 0% under setting [1] and 4% under setting [2].
As for `O=C(N/N=C/c1ccc([N+](=O)[O-])o1)c1cc([N+](=O)[O-])cc([N+](=O)[O-])c1O` [Nifursol], the inhibition at 110 µM by setting is: under setting [1], 8%; under setting [2], 6%.
Consider `O=[N+]([O-])c1cncn1CCN1CCOCC1` [Nimorazole], for which the inhibition at 110 µM is, setting by setting: under setting [1], 0%; under setting [2], 0%.
`CC(=O)Oc1ccccc1C(=O)Nc1ncc([N+](=O)[O-])s1` [Nitazoxanide]: the inhibition at 110 µM under setting [1] was 51% and the inhibition at 110 µM under setting [2] was 49%.
As to `CC(=O)Nc1ncc([N+](=O)[O-])s1` [Nithiamide], the inhibition at 110 µM was found to be 32% under setting [1] and 7% under setting [2].
For `O=C1CN(/N=C/c2ccc([N+](=O)[O-])o2)C(=O)N1` [Nitrofurantoin], the inhibition at 110 µM was 24% under setting [1] and 4% under setting [2].
As to `NC(=O)N/N=C/c1ccc([N+](=O)[O-])o1` [Nitrofurazone], the inhibition at 110 µM by setting is: under setting [1], 25%; under setting [2], 22%.
As for `COc1ccc(-c2cc(=O)c3c(OC)c(OC)c(OC)c(OC)c3o2)cc1OC` [Nobiletin], the inhibition at 110 µM under setting [1] worked out at 0% and the inhibition at 110 µM under setting [2] was 0%.
Take `C=C1C(=O)[C@]23C[C@H]1C[C@@H](O)[C@H]2[C@@]12CO[C@@H](O)[C@@H]1C(C)(C)CC[C@@H]2OC3=O` [Nodosin]: the inhibition at 110 µM by setting is: under setting [1], 0%; under setting [2], 14%.
Regarding `CC(=O)O[C@H]1CC(=O)OC(C)(C)[C@@H]2CC(=O)[C@]3(C)[C@H](CC[C@@]4(C)[C@H](c5ccoc5)OC(=O)[C@H]5O[C@]543)[C@@]12C` [Nomilin], the inhibition at 110 µM under setting [1] worked out at 0% and the inhibition at 110 µM under setting [2] is 22%.
With `CCCCCCCCC(=O)NCc1ccc(O)c(OC)c1` [Nonivamide], the inhibition at 110 µM under setting [2] amounted to 0%.
For `C=C(C)[C@@H]1CCC2=CC(=O)C[C@@H](C)[C@]2(C)C1` [Nootkatone], the inhibition at 110 µM reads like this: under setting [1], 28%; under setting [2], 20%.
Turning to `c1ccc2c(c1)[nH]c1cnccc12` [Norharmane], the inhibition at 110 µM is, setting by setting: under setting [1], 0%; under setting [2], 9%.
Consider `O=c1cc(-c2ccccc2)oc2c(O)c(O)cc(O)c12` [Norwogonin], for which the inhibition at 110 µM amounted to 0% under setting [1] and 12% under setting [2].
For `COc1cc2c3c(c1OC)-c1ccccc1C[C@H]3N(C)CC2` [Nuciferine] the same measures were 0% and 16%.

The inhibition is the share of the control response that was lost under treatment.
